In data set [1] the test system is miR-155 downstream genes. Description: Downstream gene expression and protein levels in U2932 tumor samples. Type of data set: in vivo, NSG mice. Conditions: U2932 xenograft. How it is done: FIGS. 22A-D show in vivo gene expression and protein level analysis. (22A) miR-155 gene expression levels in U2932 tumor samples after in vivo treatment with indicated PNAs. Data was normalized with average control U6 (n=4, data represented as mean±standard error mean). ***p<0.001 (22B) Gene expression level of downstream target genes of miR-155: MCL1 in U2932 tumor samples after treatment with total 3 mg kg-1 dose of Scr-γtcPNA-155, PNA-155, γPNA-155 and γtcPNA-155 and normalized with average control GAPDH (n=3, data represented as mean±SEM), unpaired two-tailed t-test was performed for analysis). *p<0.05, **p<0.01 (22C) Representative western blot of Mcl-1 protein and its quantification (n=3 technical replicate) in U2932 tumor samples treated with total 3 mg kg-1 dose of Scr-γtcPNA-155, PNA-155 and γtcPNA-155. Data is represented as mean±SEM and unpaired two-tailed t-test was performed for analysis. *p<0.05. The relative protein levels were determined from the band intensity using ImageJ software and normalized relative to loading control and treatment control. (22D) Gene expression level of tumor suppressor proteins (FOXO3A, CUX1, SOCS1, CSF1R, JARID2, SHIP1, PICALM, PDCD4, BACH1, CASP3) in U2932 tumor samples after treatment with total 3 mg kg-1 dose of Scr-γtcPNA-155, PNA-155, γPNA-155 and γtcPNA-155 and normalized with average control GAPDH (n=3, data represented as mean±SEM, unpaired two-tailed t-test was performed for statistical analysis). *p<0.05, **p<0.01.
Data is represented as mean±SEM and unpaired t-test was used for statistical analysis *p<0.05. The relative protein levels were determined from the band intensity using ImageJ software and normalized relative to loading control and treatment control.
Data is represented as mean±SEM and unpaired t-test was used for statistical analysis.
Data is represented as mean±SEM and unpaired t-test was used for statistical analysis. The relative protein levels were determined from the band intensity using ImageJ software and normalized relative to loading control and treatment control.
RNA and Protein extraction from tumor samples: The mice were injected intra-tumorally with 1 mg kg-1 dose of PNA-155, γtcPNA-155, γPNA-155, Scr-γtcPNA-155 or were untreated. The injections were repeated two additional times after 1 week each. The length, breadth, and depth of the tumors were measured daily using a vernier caliper. The mice were euthanized when the tumor volumes reached 2000 mm^3. The resected tumor sections were finely minced using a sterile blade and suspended in dissociation media (4 ml) comprising of RPMI-1640, 1.2 mg/ml dispase, and 0.5 mg/ml collagenase for 90 mins at 500 rpm at 37° C. The dissociated tumors were washed with buffer saline at 2500 rpm (4 mins) at 4° C. and then suspended in 0.25% trypsin for 4 mins at room temperature. RPMI 1640 media was added to the trypsinized tumor mass, and the cells were passed through a 70 um filter. The cells were centrifuged at 2500 rpm for 4 mins at 4° C. The cell pellet was then suspended in 1×RBC lysis buffer (Sigma) and incubated on ice for 10 mins. PBS was added to the cells and the cells were passed through a 40 um filter. The cells were centrifuged at 2500 rpm for 4 mins at 4° C. The cell pellet was resuspended in 0.5% BSA in PBS. The mouse cells were removed from the tumor cells using a mouse cell depletion kit (Miltenyi Biotec) according to the manufacturer's protocol. The enriched tumor cells from each tumor sample were divided into two fractions. RNA for gene expression analysis was extracted from one tumor fraction by the same procedure as mentioned earlier. The protein for western blot analysis was extracted from the second fraction using the method described above.

Data set [2] concerns miR-155. The data set can be described thus: Gel shift binding assay (PAGE, SYBR Gold). How it is done: (1D) Dose-dependent gel shift binding assay of target miR-155 ([…]) with PNA-155 and γtcPNA-155 at indicated concentrations. The samples were prepared in the physiological buffer (2 mM MgCl2, 150 mM KCl, 10 mM NaPi) and incubated for 24 hours at physiological temperature (37° C.) followed by PAGE separation and visualization of bands by SYBr® Gold staining. […] (iii) γtcPNA-155 binding with the target miR-155 by Watson Crick and Hoogsteen base pairing. (iv) γtcPNA-155 binding with the miR-155 by Watson-Crick base pairing. (v) Clamp segment of γtcPNA-155 binding with the target miR-155 by Hoogsteen base pairing.
Gel shift assay: Different concentration of PNA-155 or gamma tcPNA-155 were made in physiological buffer (2 mM MgCl2, 150 mM KCl, 10 mM NaPi) and incubated overnight at 37° C. with 1 μM DNA-155 target. The samples were run through 8% Polyacrylamide gel electrophoresis (PAGE) gel in IX TBE buffer at 120 volts for 35 mins. The gel was stained with SyBr Gold for two mins and visualized using Gel Doc™ EZ Imager (Bio-rad). […]
Next, we evaluated the binding affinity of γtcPNA-155 and PNA-155 with the miR-155 target by polyacrylamide gel electrophoresis (PAGE) based protocols (FIG. 1D). We incubated PNA-155 and γtcPNA-155 with miR-155 at indicated concentrations in physiological buffer and temperature and assessed the binding by PAGE followed by SYBR gold staining. […]

Experimental findings from patent US20260092085A1, “SYNTHETIC TRIPLEX PEPTIDE NUCLEIC ACID-BASED INHIBITORS FOR CANCER THERAPY” (University of Connecticut, priority 2022, published 2026) are described below.

With “γtcPNA-155: serine gamma tail-clamp anti-miR-155 PNA, RR-TJJJJ-OOO-ACCCCTATCACGATTAGCATTAA-RR, SEQ ID NO: 3 (all peptide nucleic acid (PNA); serine gamma PNA, tail-clamp TJJJJ via linkers, Arg-Arg at both ends)”, in data set [1] (intratumoral), the “upregulation of tumor suppressor genes in tumors” value was “significant upregulation”. Further, the “decrease in MCL1 mRNA levels in tumors” value in data set [1] (total 3 mg kg-1, compared to PNA-155 treated group) is recorded as around 50%. In addition, the “increase in Caspase-3 protein levels in tumors” value in data set [1] (versus Scr-γtcPNA-155-treated tumors) was found to be 23%. The “Mcl-1 protein level in tumors” value in data set [1] (western blot) is given as “reduction in the protein levels”. Also, the “binding affinity with miR-155 target (comparison)” value in data set [2] was “stronger binding affinity compared to regular PNA-155”.
